Data: US20210230203A1, “Amphiphilic Kanamycin Compositions and Methods” (priority 2020, published 2021)
Values after ≈ are worked out from the molar mass of the structure shown.

Key:
[1] = test system: Cryptococcus neoformans H99; test: MIC against fungal strains (Table 1); assay type: cell-based; details: Cryptococcus neoformans H99
Coccidioldes sp. = test: microbe, parasite or virus in culture; assay type: cell-based, Coccidioides species; details: Table 3, RPMI 0.165M MOPS, 24-72 hours
E. coli (25922) = test: MIC against bacterial strains; assay type: cell-based
[2] = test system: S. aureus (ATCC 43300) MRSA; assay type: cell-based
C. krusei = test: MIC against yeast, CLSI M27 & M38 (Table 2); details: C. krusei ATCC 6258; Table 2; RPMI 0.165M MOPS; 24-72 hours
Candida auris = test: MIC against yeast, CLSI M27 & M38 (Table 2); details: 24-72 hours
Cryptococcus neoformans = test: MIC against yeast, CLSI M27 & M38 (Table 2); details: 24-72 hours
A. furnigatus = test: MIC against various species, CLSI M27 & M38 (Table 4); details: 24-72 hours
[3] = Candida auris CAU1, RPMI 0.165M MOPS
[4] = Candida auris CAU2, RPMI 0.165M MOPS
[5] = Candida auris CAU3, RPMI 0.165M MOPS
[6] = Candida auris CAU4, RPMI 0.165M MOPS
[7] = Candida auris CAU5, RPMI 0.165M MOPS
[8] = Candida auris CAU6, RPMI 0.165M MOPS
[9] = Candida auris CAU7, RPMI 0.165M MOPS
[10] = Candida auris DI17-46, RPMI 0.165M MOPS
[11] = Candida auris DI17-47, RPMI 0.165M MOPS
[12] = Candida auris DI17-48, RPMI 0.165M MOPS
[13] = Cryptococcus neoformans CN1, RPMI 0.165M MOPS
[14] = Cryptococcus neoformans H99, RPMI 0.165M MOPS
[15] = Cryptococcus neoformans USC1597, RPMI 0.165M MOPS
[16] = A. furnigatus AF1, RPMI 0.165M MOPS
[17] = A. furnigatus AF2, RPMI 0.165M MOPS
[18] = A. furnigatus AF3, RPMI 0.165M MOPS

CCCCCCCCCCCCCCCC(=O)NC[C@H]1O[C@H](O[C@H]2[C@H](O)[C@@H](O[C@H]3O[C@H](CO)[C@@H](O)[C@H](N)[C@H]3O)[C@H](N)C[C@@H]2N)[C@H](O)[C@@H](O)[C@@H]1O [KI06]
Minimum inhibitory concentration [1]: 4 µg/mL (≈ 5.53 µM)
Minimum inhibitory concentration 50% (Coccidioldes sp.; Coccidioldes sp. Cocci1): 4 µg/mL (≈ 5.53 µM)
Minimum inhibitory concentration 100% (Coccidioldes sp.; Coccidioldes sp. Cocci1): 8 µg/mL (≈ 11.1 µM)
Minimum inhibitory concentration 50% (Coccidioldes sp.; Coccidioldes sp. Cocci2): 4 µg/mL (≈ 5.53 µM)
Minimum inhibitory concentration 100% (Coccidioldes sp.; Coccidioldes sp. Cocci2): 8 µg/mL (≈ 11.1 µM)
Minimum inhibitory concentration 50% (Coccidioldes sp.; Coccidioldes sp. DI17-143): 4 µg/mL (≈ 5.53 µM)
Minimum inhibitory concentration 100% (Coccidioldes sp.; Coccidioldes sp. DI17-143): 8 µg/mL (≈ 11.1 µM)
Minimum inhibitory concentration (E. coli (25922)): 32 µg/mL (≈ 44.3 µM)
Minimum inhibitory concentration [2]: 16 µg/mL (≈ 22.1 µM)
Minimum inhibitory concentration 50% (C. krusei): 8 µg/mL (≈ 11.1 µM)
Minimum inhibitory concentration 100% (C. krusei): 8 µg/mL (≈ 11.1 µM)
Minimum inhibitory concentration 50% (Candida auris; [3]): 4 µg/mL (≈ 5.53 µM)
Minimum inhibitory concentration 100% (Candida auris; [3]): 8 µg/mL (≈ 11.1 µM)
Minimum inhibitory concentration 50% (Candida auris; [4]): 4 µg/mL (≈ 5.53 µM)
Minimum inhibitory concentration 100% (Candida auris; [4]): 8 µg/mL (≈ 11.1 µM)
Minimum inhibitory concentration 50% (Candida auris; [5]): 4 µg/mL (≈ 5.53 µM)
Minimum inhibitory concentration 100% (Candida auris; [5]): 8 µg/mL (≈ 11.1 µM)
Minimum inhibitory concentration 50% (Candida auris; [6]): 8 µg/mL (≈ 11.1 µM)
Minimum inhibitory concentration 100% (Candida auris; [6]): 8 µg/mL (≈ 11.1 µM)
Minimum inhibitory concentration 50% (Candida auris; [7]): 8 µg/mL (≈ 11.1 µM)
Minimum inhibitory concentration 100% (Candida auris; [7]): 8 µg/mL (≈ 11.1 µM)
Minimum inhibitory concentration 50% (Candida auris; [8]): 4 µg/mL (≈ 5.53 µM)
Minimum inhibitory concentration 100% (Candida auris; [8]): 8 µg/mL (≈ 11.1 µM)
Minimum inhibitory concentration 50% (Candida auris; [9]): 4 µg/mL (≈ 5.53 µM)
Minimum inhibitory concentration 100% (Candida auris; [9]): 8 µg/mL (≈ 11.1 µM)
Minimum inhibitory concentration 50% (Candida auris; [10]): 8 µg/mL (≈ 11.1 µM)
Minimum inhibitory concentration 100% (Candida auris; [10]): 8 µg/mL (≈ 11.1 µM)
Minimum inhibitory concentration 50% (Candida auris; [11]): 8 µg/mL (≈ 11.1 µM)
Minimum inhibitory concentration 100% (Candida auris; [11]): 8 µg/mL (≈ 11.1 µM)
Minimum inhibitory concentration 50% (Candida auris; [12]): 4 µg/mL (≈ 5.53 µM)
Minimum inhibitory concentration 100% (Candida auris; [12]): 8 µg/mL (≈ 11.1 µM)
Minimum inhibitory concentration 50% (Cryptococcus neoformans; [13]): 4 µg/mL (≈ 5.53 µM)
Minimum inhibitory concentration 100% (Cryptococcus neoformans; [13]): 4 µg/mL (≈ 5.53 µM)
Minimum inhibitory concentration 50% (Cryptococcus neoformans; [14]): 4 µg/mL (≈ 5.53 µM)
Minimum inhibitory concentration 100% (Cryptococcus neoformans; [14]): 4 µg/mL (≈ 5.53 µM)
Minimum inhibitory concentration 50% (Cryptococcus neoformans; [15]): 4 µg/mL (≈ 5.53 µM)
Minimum inhibitory concentration 100% (Cryptococcus neoformans; [15]): 4 µg/mL (≈ 5.53 µM)
Minimum inhibitory concentration 50% (A. furnigatus; [16]): 8 µg/mL (≈ 11.1 µM)
Minimum inhibitory concentration 100% (A. furnigatus; [16]): 8 µg/mL (≈ 11.1 µM)
Minimum inhibitory concentration 50% (A. furnigatus; [17]): 32 µg/mL (≈ 44.3 µM)
Minimum inhibitory concentration 100% (A. furnigatus; [17]): 32 µg/mL (≈ 44.3 µM)
Minimum inhibitory concentration 50% (A. furnigatus; [18]): 8 µg/mL (≈ 11.1 µM)
Minimum inhibitory concentration 100% (A. furnigatus; [18]): 16 µg/mL (≈ 22.1 µM)
